The text below walks through data of US20080213863A1, “Method of Controlling Viral Outbreak” (priority 2003, published 2008).

In data set [1] the test system is CD4+ HIV-susceptible target cells. Nature of the data set: Depletion of total cellular cholesterol by 2-OH-β-CD treatment. The class given is cell-based. To be noted: 10 to 20 mM for 1 hour at 37° C., then washing.
Description: The role of lipid rafts in the HIV-1 fusion process was examined by treating CD4+ HIV-susceptible target cells with 2-OH-β-CD to deplete membrane cholesterol and disperse lipid rafts.
The test system of data set [2] is HIV-1. Nature of the data set: HIV-1 binding to cells. The conditions noted are these: treatment of the virus or cells. The class given is cell-based. From the text: (§1) As described above, budding of HIV-1 particles occurs at lipid rafts, which are characterized by a distinct lipid composition that includes high concentrations of cholesterol, sphingolipids, and glycolipids. Since cholesterol plays a key role in the entry of some other viruses, the role in HIV-1 entry of cholesterol and lipid rafts in the plasma membrane of susceptible cells was investigated. […] A β-CD derivative, 2-hydroxypropyl-β-cyclodextrin (2-OH-β-CD), was used to deplete cellular cholesterol and disperse lipid rafts. As disclosed herein, removal of cellular cholesterol rendered primary cells and cell lines highly resistant to HIV-1-mediated syncytium formation and to infection by both CXCR4- and CCR5-specific strains of HIV-1 virus. […] Cholesterol depletion also made cells resistant to SDF-1-induced binding to ICAM-1 through LFA-1.

The next data set concerns LFA-1. Nature of the data set: SDF-1-induced binding of cells to ICAM-1 through LFA-1. The class given is cell-based. The conditions noted are these: cholesterol-depleted cells.
Description: as §1

Data set [3] relates to HIV-1. Briefly: Infection of primary cells and cell lines by HIV-1 strains. The class given is cell-based. To be noted: primary cells and cell lines treated.
Data set [4] deals with HIV-1. Nature of the data set: HIV-1-mediated syncytium formation. The class given is cell-based. To be noted: treatment of target cells.
Data set [5] has as its system HIV-1. Briefly: Capture of HIV-1 by MAbs against host and viral proteins, measured as percentage of total p24. The class given is cell-based. From the text:
By removing cholesterol, 2-OH-β-CD is believed to partially perturb organized lipid rafts, resulting in dispersal of their components (Ilangumaran and Hoessli, Biochem. J. 335:433-440, 1998).

The next data set has as its system CD4; chemokine receptors. Nature of the data set: CD4 expression and antibody-mediated internalization of chemokine receptors. The class given is cell-based. The conditions noted are these: treatment of the virus or cells.
[6] abbreviates: after treating cells, percentage of total p24.

Consider “2-hydroxypropyl-β-cyclodextrin [2-OH-β-CD]”, for which, in [1], the “depletion of total cellular cholesterol” value was “greater than 70%”. For the same substance, the HIV-1 binding entry with HIV-1 [2] was “partially reduced”. Besides, the “SDF-1-induced binding to ICAM-1 through LFA-1” value in the data set on LFA-1 is given as “resistant”. The “infection by CXCR4-specific and CCR5-specific HIV-1 strains” value in the data set with HIV-1 [3] is given as “rendered resistant”. The “syncytium formation of primary cells and cell lines” value with HIV-1 [4] was “blocked syncytium formation”. In addition, the “CD45 capture of HIV-1” value in the data set with HIV-1 [5] (after treating cells) is listed as “remained unaffected”. In addition, in the data set on HIV-1 [5] (setting [6]), the “capture of HIV-1 by MAb against CD59” value is recorded as “decreased substantially” and the “capture of HIV-1 by MAb against gp41” value is on record as “decreased substantially”. Also, in the data set with HIV-1 [5] (after treatment), the “overall cellular release of p24” value is given as “increased”. Also, the “Ca2+ flux responses to anti-CD3 MAb” value with Jurkat cells is given as “still showed Ca^2+ flux responses”. Besides, in the data set on treated cells, the “cell growth after treatment” value is on record as “continued to grow normally”. Moreover, in the data set with CD4; chemokine receptors, the CD4 expression entry is on record as “no effect” and the “antibody-mediated internalization of chemokine receptors” value was “highly sensitive”.
